Measured values as given in patent US20260053767A1, “Hepatoprotective Compositions And Methods” (Jemyll, Ltd., priority 2022, published 2026).
“Also recorded” adds a separate entry of the source.

Columns and labels:
[1] = test system: endothelial cells (EOMA cells); assay: Total antioxidant capacity in endothelial cells; assay type: cell-based; conditions: 24 hours, in the presence of hydrogen peroxide, p=0.001
Source text: (§1) To that end, the inventors used endothelial cells (EOMA cells) and liver cells (AML-12 cells) in vitro and quantified various markers in response to exposure of the cells to environmental challenge in the presence and absence of DDA at low concentrations. Unless indicated otherwise, the DDA concentration in the in vitro experiments was 5 mcg per microliter. More specifically, the inventors measured p-H2AX protein levels as a marker for DNA damage, PGC-1α protein levels as a marker for mitochondrial biogenesis, NAMPT enzyme levels as a marker for potential for NAD+ production, and total antioxidant capacity as a marker of cellular health. In addition, the inventors also measured global SIRT activity as a gauge of activity for all SIRT enzymes, and in particular SIRT1 enzyme levels as markers for autophagy and various beneficial processes associated with a caloric restricted diet, and SIRT3 levels as markers for mitochondrial function and longevity.
In yet a further series of experiments, the inventors also sought to confirm whether or not DDDA would have a modulatory effect in endothelial cells using the same markers and experimental conditions as noted above.
With respect to antioxidant capacity, FIG. 12 depicts exemplary results. […] N=5-6 plates per treatment.

Wistar rats [2] = assay: Study 2 (reversal): oral glucose tolerance test and HOMA-IR; assay type: in vivo; conditions: Study 2: 9 weeks high fat-high cholesterol diet, then 4 weeks treatment
Experimental: (§2) Study design: All animal procedures were approved by the Catholic University of Rome Institutional Animal Care Committee. The design of the studies is summarized in FIG. 18, Panels A and B. • Study 1: Twenty adult Wistar rats, aged 8-10 weeks, were included in the study. The rats were housed in individual cages at 22° C. with 12-h light cycles and had ad libitum access to food and water. Rats were fed a high-fat high-cholesterol diet (44% Carbohydrate, 14% Protein, 42% fat+0.2% Cholesterol) (Mucedola, Milan, IT) for four weeks in the presence or absence of 1% Dodecanedioic acid, sodium salt (w/vol) dissolved in the water (FIG. 18, Panel A). Body weight and food/water intake were monitored weekly. • Study 2: Twenty adult Wistar rats, aged 8-10 weeks, were included in the study. The rats were housed in individual cages at 22° C. with 12-h light cycles and had ad libitum access to food and water. Rats were fed a high-fat high-cholesterol diet (44% Carbohydrate, 14% Protein, 42% fat+0.2% Cholesterol) (Mucedola, Milan, IT). After nine weeks of diet, rats were randomly assigned to one of the following groups: Four weeks of high-fat high-cholesterol diet or four weeks of high-fat high-cholesterol diet and 1% Dodecanedioic acid, sodium salt (w/v) dissolved in the water FIG. 18, Panel B). Body weight and food/water intake were monitored weekly.
Oral Glucose Test Tolerance (OGTT): All animals underwent an OGTT at the end of the study. After an overnight fasting, the rats received a 50% D-glucose solution (1 g/kg body weight) by oral gavage. Blood samples were taken by tail bleeding and collected in EDTA tubes. All blood samples were immediately centrifuged, and plasma divided into appropriate subsamples and stored at −20° C. for further analysis. Blood glucose and was measured at 0, 20, 40, 60, 80, 100 and 120 minutes, while plasma insulin at 0, 60 and 120 minutes. Blood glucose levels were measured by glucometer (Accu-Chek, Roche Diagnostics Division, Grenzacherstrasse, CH). Plasma insulin was measured by ELISA (EMD Millipore Corporation, Billerica, MA), with a sensitivity of 0.1 ng/ml and an intra-and inter-assay precision of 1.9% and 7.6%, respectively.
DODA administration reverses insulin resistance and NASH: To assess if DODA could reverse the development of diet-induced insulin resistance and NASH, rats were first fed high fat high cholesterol diet for 9 weeks to develop insulin resistance and NASH. After 9 weeks of diet, DODA was administered for 4 weeks to assess insulin resistance and NASH reversal. Rats fed high fat high cholesterol diet without the administration of DODA were included as controls.
Panels A and B. • Study 1: Twenty adult Wistar rats, aged 8-10 weeks, were included in the study. The rats were housed in individual cages at 22° C. with 12-h light cycles and had ad libitum access to food and water. Rats were fed a high fat high cholesterol diet (44% Carbohydrate, 14% Protein, 42% fat+0.2% Cholesterol) for 4 weeks in the presence or absence of 1% Dodecanedioic acid, sodium salt dissolved in the water (FIG. 25, Panel A). Body weight and food/water intake were monitored weekly. • Study 2: Twenty adult Wistar rats, aged 8-10 weeks, were included in the study. The rats were housed in individual cages at 22° C. with 12-h light cycles and had ad libitum access to food and water. Rats were fed a high fat-high cholesterol diet (44% Carbohydrate, 14% Protein, 42% fat+0.2% Cholesterol). […] Body weight and food/water intake were monitored weekly. […]

[3] = test system: liver cells (AML-12 cells); assay: Total antioxidant capacity in liver cells; assay type: cell-based; conditions: AML-12 liver cells, in the presence of hydrogen peroxide
Source text: as §1

Wistar rats [4] = assay: Study 2 (reversal): liver histology (H&E, Oil Red O, Sirius Red); assay type: in vivo; conditions: Study 2: 9 weeks diet, then 4 weeks treatment
Experimental: as §2
Histology: The day of the sacrifice fresh portions of liver were cut, embedded in cryo-embedding media (OCT) and snap frozen in liquid nitrogen. Biopsies were cut using a cryostat (5 μm) and slides stored a −20° C. until analyses.
Hematoxylin and Eosin staining was performed to assess hepatic steatosis. Slides were fixed 10 minutes with 95% ethanol, stained with hematoxylin for 1 minute, washed with distilled water, stained with eosin for 30 seconds and cleared in two changes of pure ethanol and two changes of xylene.
Oil Red O was performed to assess intracellular lipid accumulation. Slides were fixed overnight with 4% formalin, stained with Oil Red O solution for 1 hour. Counterstain was performed with Hematoxylin solution.
Sirius Red was used to identify hepatic fibrosis. Slides were fixed 10 minutes with 4% formalin, stained in Direct red 80 for 1 hour, washed in acidified water and dehydrate in 3 changes of absolute ethanol. After brief clearing in xylene, the slides were mounted in a resinous medium. Images were taken with an optical microscope (Leica DM2000, Wetzlar, DE). […]
Panels A and B. • Study 1: Twenty adult Wistar rats, aged 8-10 weeks, were included in the study. […] Body weight and food/water intake were monitored weekly. • Study 2: Twenty adult Wistar rats, aged 8-10 weeks, were included in the study. […] Body weight and food/water intake were monitored weekly. […]

O=C(O)CCCCCCCCCCC(=O)O [DDDA, dodecanedioic acid]
cellular total antioxidant capacity [1]: maintained | blood glucose concentrations during an oral glucose tolerance test (Wistar rats [2]; vs controls): decrease | insulin resistance as assessed by HOMA-IR (Wistar rats [2]; vs controls): reverse insulin resistance | plasma insulin concentrations during an oral glucose tolerance test (Wistar rats [2]; vs controls): decrease | diet-induced insulin resistance and NASH (overall, reversal) (Wistar rats [2]; listed as C12): could reverse both diet-induced insulin resistance and NASH; also recorded: reverses diet-induced insulin resistance | diet-induced insulin resistance and NASH (overall, reversal) (Wistar rats [2]; listed as DODA): could reverse both diet-induced insulin resistance and NASH; also recorded: reverses diet-induced insulin resistance | cellular total antioxidant capacity ([3]; 6 hours, 5 mcg per microliter, p=0.001): maintains cellular total antioxidant capacity | cellular total antioxidant capacity ([3]; 24 hours, same trend as 6 hours): did not reach a level of significance | diet-induced NASH (histology, reversal) (Wistar rats [4]): reverses diet-induced insulin NASH | fibrosis (Picro Sirius Red) (Wistar rats [4]): decreasing | hepatic steatosis (Hematoxylin and Eosin) (Wistar rats [4]): decreasing | neutral lipids (Oil Red O) (Wistar rats [4]): decreasing
